Laboratory results taken from ChEMBL document CHEMBL1130542, “Design and synthesis of an -mannosyl terpenoid as selective inhibitor of P-selectin” (Bioorg Med Chem Lett, 1997).
Calls of active or inactive are those of the source. The calls are words filed in the database; no cut-off is given here.

Columns and labels:
[1] = biological target: T1, E-selectin (Homo sapiens) (UniProt P16581); assay: Inhibitory activity against Selectin E was determined; IA=Inactive
T1 sequence (whole entry): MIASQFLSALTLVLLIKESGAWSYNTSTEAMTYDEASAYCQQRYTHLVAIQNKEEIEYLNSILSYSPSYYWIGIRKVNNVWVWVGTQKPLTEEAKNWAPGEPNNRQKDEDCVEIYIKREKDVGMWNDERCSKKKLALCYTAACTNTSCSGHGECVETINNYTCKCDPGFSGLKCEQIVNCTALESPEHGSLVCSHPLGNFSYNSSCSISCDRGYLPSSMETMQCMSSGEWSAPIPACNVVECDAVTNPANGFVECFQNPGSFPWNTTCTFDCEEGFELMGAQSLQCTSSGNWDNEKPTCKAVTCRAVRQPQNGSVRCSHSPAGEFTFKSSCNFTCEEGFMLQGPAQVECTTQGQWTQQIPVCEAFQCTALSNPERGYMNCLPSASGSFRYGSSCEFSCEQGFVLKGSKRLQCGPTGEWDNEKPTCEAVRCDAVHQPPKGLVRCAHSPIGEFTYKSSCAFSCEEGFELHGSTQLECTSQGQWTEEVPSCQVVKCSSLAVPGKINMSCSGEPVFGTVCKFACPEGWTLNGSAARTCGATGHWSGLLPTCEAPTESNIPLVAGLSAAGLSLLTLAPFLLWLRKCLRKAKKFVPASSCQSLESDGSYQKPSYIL

[2] = biological target: T2, L-selectin (Homo sapiens) (UniProt P14151); assay: Inhibitory activity against L-selectin was determined; IA=Inactive
T2 sequence (whole entry): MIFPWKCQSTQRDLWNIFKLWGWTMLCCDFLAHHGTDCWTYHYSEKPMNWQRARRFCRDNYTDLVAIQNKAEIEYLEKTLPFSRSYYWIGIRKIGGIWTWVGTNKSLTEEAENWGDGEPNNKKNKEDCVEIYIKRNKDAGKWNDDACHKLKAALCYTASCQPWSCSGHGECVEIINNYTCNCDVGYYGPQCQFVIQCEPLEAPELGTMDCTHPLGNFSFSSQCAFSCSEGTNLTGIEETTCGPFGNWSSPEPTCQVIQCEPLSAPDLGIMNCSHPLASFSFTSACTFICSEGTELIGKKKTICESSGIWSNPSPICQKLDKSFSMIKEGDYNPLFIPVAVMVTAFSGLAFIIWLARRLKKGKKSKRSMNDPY

P-selectin = biological target: T3, P-selectin (Homo sapiens, UniProt P16109); assay: Inhibitory activity against P-selectin was determined
T3 sequence (P16109 whole entry): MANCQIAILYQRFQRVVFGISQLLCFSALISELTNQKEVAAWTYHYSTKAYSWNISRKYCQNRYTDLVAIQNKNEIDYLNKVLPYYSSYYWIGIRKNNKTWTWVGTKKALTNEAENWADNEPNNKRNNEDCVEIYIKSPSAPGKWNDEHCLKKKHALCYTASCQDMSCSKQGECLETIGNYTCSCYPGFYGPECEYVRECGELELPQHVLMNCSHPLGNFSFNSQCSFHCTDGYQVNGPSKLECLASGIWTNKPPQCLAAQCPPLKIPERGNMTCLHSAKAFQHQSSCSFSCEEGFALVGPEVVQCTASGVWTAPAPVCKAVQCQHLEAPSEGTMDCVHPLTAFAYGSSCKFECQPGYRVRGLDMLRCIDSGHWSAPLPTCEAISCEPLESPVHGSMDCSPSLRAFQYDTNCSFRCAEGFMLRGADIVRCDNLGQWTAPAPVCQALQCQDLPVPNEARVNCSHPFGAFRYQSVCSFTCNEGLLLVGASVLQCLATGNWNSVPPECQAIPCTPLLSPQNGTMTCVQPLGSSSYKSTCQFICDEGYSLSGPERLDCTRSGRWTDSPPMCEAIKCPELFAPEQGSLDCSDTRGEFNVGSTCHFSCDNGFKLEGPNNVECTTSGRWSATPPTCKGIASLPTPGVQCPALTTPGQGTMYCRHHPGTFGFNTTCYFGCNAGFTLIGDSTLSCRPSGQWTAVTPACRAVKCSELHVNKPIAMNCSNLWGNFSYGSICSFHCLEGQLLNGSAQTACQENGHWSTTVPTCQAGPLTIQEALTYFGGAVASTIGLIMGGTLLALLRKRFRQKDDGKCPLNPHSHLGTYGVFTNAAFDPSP

[3] = biological target: T4, P-selectin (Homo sapiens) (UniProt P16109); assay: Inhibitory activity against P-selectin was determined; IA=Inactive
T4 sequence (whole entry): T3 sequence (P16109 whole entry)

| SMILES | Activity [1] | Activity [2] | IC50 (P-selectin) | Activity [3] |
| --- | --- | --- | --- | --- |
| C[C@@]12CCC[C@@](C)(C(=O)O)C1CC[C@@]13C[C@@H](O[C@H]4O[C@H](CO)[C@@H](O)[C@@H](O)[C@@H]4O)[C@@](C)(CCC12)C3 (stereo partly specified) | inactive | inactive | 60 µM |  |
| C[C@@]12CCC[C@@](C)(C(=O)O)C1CC[C@]13C[C@H](O[C@H]4O[C@H](CO)[C@@H](O)[C@@H](O)[C@@H]4O)[C@](O)(CCC12)C3 (stereo partly specified) | inactive | inactive |  | inactive |
